Laboratory results reported in PMC5584254, “Identification of novel small molecule Beclin 1 mimetics activating autophagy” (Oncotarget, 2017).
Structures can show the parent of a compound that is named as a salt.

How the values were obtained:
[1] = molecular target: T1, Bcl-xL-Beclin 1 complex (Homo sapiens, UniProt Q07817); experiment: Concentration response FP reconfirmation of HTS hits; type: binding; conditions: hits of first screen; for inhibition at 5 µM: read-out: Dose-response (% Inhibition) 5 μM; for inhibition at 10 µM: read-out: Dose-response (% Inhibition) 10 μM; for inhibition at 20 µM: read-out: Dose-response (% Inhibition) 20 μM; for inhibition at 40 µM: read-out: Dose-response (% Inhibition) 40 μM; for inhibition at 80 µM: read-out: Dose-response (% Inhibition) 80 μM; for inhibition at 160 µM: read-out: Dose-response (% Inhibition) 160 μM
T1 construct: made in house
Protocol: (§1) Then the plates were read by Envision (Perkin Elmer, Waltham, MA). […] The hits were selected from library stocks and reconfirmed in a concentration response FP assay (6 doses ranging from 5 μM to 160 μM or 8 doses ranging from 0.5 μM to 60 μM).

[2] = molecular target: T1, Bcl-xL-Beclin 1 complex; experiment: FP-based high-throughput screening, primary screen; type: binding; conditions: first screen; 40 μM compound, 2.5 μM Bcl-xL, 400 nM 20-mer
Source text: Next, we optimized the FP competitive binding assay in a 384-well microplate format and carried out a small-scale HTS using a small library, which contains 6580 compounds from Prestwick, Microsource and our in-house CMLD library. Then, the FP assay was optimized and applied in screening the larger Chembridge library consisting of 43736 compounds. HTS cascades are shown in Supplementary Figure 1A–1B. […] All chemical structures can be found on the PubChem website (http://pubchem.ncbi.nlm.nih.gov/).
as §1

[3] = system: PC-3; experiment: MTT-based cytotoxicity assay, PC-3; conditions: Homo sapiens, averages of at least two independent experiments, read-out: Cytotoxicity in different cell lines (IC50, μM) PC-3
Source text: Human prostate cancer cell lines PC-3 and DU145, were purchased from American Type Culture Collection (ATCC) and used within 50 passages. PC-3a is a derivative of PC-3 that is resistant to chemo/radiotherapy, established in our lab and confirmed by genotyping. All cells were maintained in DMEM (Mediatech, Manassas, VA) supplemented with 10% fetal bovine serum (FBS) (Sigma-Aldrich, St. Louis, MO), 1% Glutamine (Mediatech, Manassas, VA), 1% antibiotics (Mediatech, Manassas, VA). Compounds for primary FP-based HTS screening were from Prestwick, Microsource, University of Kansas Center of Excellence in Chemical Methodologies & Library Development (KU CMLD, Lawrence, KS), and Chembridge libraries. Compounds for MTT and SPR validation experiment were purchased from Microsource (Gaylordsville, CT) and Hit2lead Company (San Diego, CA). Acridine analogues, compound 1–6, were from our in-house library (provided by Specialized Chemistry Center, University of Kansas, Lawrence, KS); compound 7–17 were synthesized as described in supplementary information. (–)-Gossypol was isolated from racemic gossypol as we previously described. ABT-263 and DMSO were purchased from Sigma. MTT-based cytotoxicity assay and western blot analysis was carried out according to our previous publications. The primary antibodies used were LC3B (#2775) (Cell signaling Technology, Danvers, MA) and β-actin (A5441) (Sigma).

[4] = molecular target: T2, Bcl-xL protein (Homo sapiens, UniProt Q07817); experiment: Surface plasmon resonance assay, immobilized Bcl-xL; type: binding; conditions: SPR; 10 μM compound; Bcl-xL immobilized 10000 RU
T2 construct: made in house
Protocol: The surface plasmon resonance experiments were performed using a Biacore 3000 (GE Healthcare Pittsburgh, PA) equipped with a research-grade CM5 sensor chip. The ligand (Bcl-xL) was immobilized using amine-coupling chemistry. The surfaces of flow cells on a Biacore sensor chip CM5 were activated for 7 min with a 1:1 mixture of 0.1 M NHS (N-hydroxysuccinimide) and 0.1 M EDC (3-(N,N-dimethylamino) propyl-N-ethylcarbodiimide) at a flow rate of 5 μL/min. The ligand (Bcl-xL) at a concentration of 180 μg/mL in 10 mM sodium acetate, pH 4.5, was immobilized at a density of about 10000 RU on flow cell 2; the ligand (SUMO-Bcl-2, 37.5 kDa, > 90% pure based on SDS–PAGE) at a concentration of 44 μg/ml in 10 mM sodium acetate, pH 4.5, was immobilized at a density of 10000 RU on flow cell 3; flow cell 1 was left blank to serve as a reference surface. All the surfaces were blocked with a 7 min injection of 1 M ethanolamine, pH 8.0.
For kinetic analysis, a concentration series of analyte were injected over the flow cells at a flow rate of 60 μL/min at 20 °C. The complex was allowed to associate and dissociate for 120 and 180 s, respectively. For binding studies, analyte (or test compound) was injected over the two flow cells in duplicate at indicated concentration at a flow rate of 60 μL/min at 20 °C. The running buffer consisted of 20 mM HEPES, 150 mM NaCl, 3 mM EDTA, 1 mM DTT, 0.05% P20, 5% DMSO, pH 7.4. The complex was allowed to associate and dissociate for 120 and 180 s, respectively. The buffer samples containing a range of 4–6% DMSO were injected at the beginning, used for solvent correction. The surfaces were regenerated between binding cycles with a 5 s injection of 5 mM NaOH for compounds and 10 mM Glycine pH 2.5 for 20-mer.
All measurements were taken with flow cell 1 as a reference (i.e. sensorgram depicts “2–1 correction”) and corrected for DMSO bulk differences via the calibration curves. To obtain kinetic rate constants (Ka and Kd), corrected response data were fit to a simple 1:1 interaction model using local fit (includes correction for mass transport limitations) available within Biaevaluation 3.1 software or Scrubber2 software. The equilibrium dissociation constant (KD) was determined by Kd/Ka.

T2 sequence (Q07817 whole entry): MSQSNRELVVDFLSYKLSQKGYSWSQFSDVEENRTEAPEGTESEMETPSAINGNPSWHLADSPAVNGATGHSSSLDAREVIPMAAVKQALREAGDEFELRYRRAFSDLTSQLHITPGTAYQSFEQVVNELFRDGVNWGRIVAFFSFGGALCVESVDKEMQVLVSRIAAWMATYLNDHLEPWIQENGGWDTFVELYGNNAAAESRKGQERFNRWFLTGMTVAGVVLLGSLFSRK
T1 sequence (Q07817 whole entry, one chain of several): as the sequence (Q07817 whole entry) above

Row | SMILES | inhibition at 5 µM [1] | inhibition at 10 µM [1] | inhibition at 20 µM [1] | inhibition at 40 µM [1] | inhibition at 80 µM [1] | inhibition at 160 µM [1] | Primary Screen mP [2] | inhibition at 40 µM [2] | IC50 [3] | binding level to Bcl-xL protein in SPR [4]
1 | Nc1ccc2cc3ccc(N)cc3nc2c1 [Compound A13, PROFLAVINE HEMISULFATE] | 55.9% | 65.8% | 101% | 102% | 102% | 102% | -3.2 mP | 102% | 1.08 ± 0.1 µM | could bind to Bcl-xL
2 | CCOc1ccc2nc3cc(N)ccc3c(N)c2c1 [Compound A15, ETHACRIDINE LACTATE] | -0.5% | 6.2% | 14.9% | 20% | 47.7% | 60.9% | 83.5 mP | 37.9% | 1.61 ± 0.42 µM | could bind to Bcl-xL
3 | CCN(CC)CCCC(C)Nc1c2ccc(Cl)cc2nc2ccc(OC)cc12 (stereo not drawn) [Compound A21, QUINACRINE HYDROCHLORIDE] | 14.5% | 26.7% | 38.6% | 47.9% | 58.3% | 66.3% | 72.2 mP | 48.2% | 0.77 ± 0.1 µM | could bind to Bcl-xL
